pIC50: −log10 of the molar value. Counter-ions that a name gives are not always drawn.
Target: Human Factor D (Homo sapiens (Human), UniProt P00746)
Experiment: Human Factor D assay (Z-L-Lys-SBzl / DTNB, absorbance at 405 nm)
Type: biochemical
Details: Human Factor D 80 nM, assay of Example 13
Method: Human Factor D (purified from human serum, Complement Technology, Inc.) at 80 nM final concentration was incubated with test compound at various concentrations for 5 minutes at room temperature in 50 mM Tris, 1M NaCl, pH 7.5. A synthetic substrate Z-L-Lys-SBzl and DTNB (Ellman's reagent) were added to final concentrations of 100 μM each. […] IC50 values were calculated by nonlinear regression of complement Factor D reaction rates as a function of test compound concentration.

Human Factor D, sequence (P00746 26-253): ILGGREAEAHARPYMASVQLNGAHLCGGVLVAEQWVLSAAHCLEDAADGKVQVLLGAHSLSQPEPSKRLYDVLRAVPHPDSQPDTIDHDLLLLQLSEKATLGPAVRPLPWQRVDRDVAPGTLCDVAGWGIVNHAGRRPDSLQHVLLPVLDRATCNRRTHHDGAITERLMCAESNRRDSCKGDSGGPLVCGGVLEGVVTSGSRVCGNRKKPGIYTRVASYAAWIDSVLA

Row | Structure (SMILES) | pIC50 (Table 3) | pIC50 (Table 4)
1 | COc1cc(Br)cc(CC(=O)N2C[C@H](F)C[C@H]2C(=O)Nc2cccc(-c3ccccc3Cl)c2F)c1 [Compound 48, (2S,4R)-1-(2-(3-bromo-5-methoxyphenyl)acetyl)-N-(2′-chloro-2-fluorobiphenyl-3-yl)-4-fluoropyrrolidine-2-carboxamide] | > 6.00 | –
2 | Cc1cc2c(s1)c(C(N)=O)nn2CC(=O)N1C[C@H](F)C[C@H]1C(=O)Nc1cccc(-c2cc(C(N)=O)ccc2Cl)c1F [Compound 49, 1-(2-((2S,4R)-2-(5′-carbamoyl-2′-chloro-2-fluorobiphenyl-3-ylcarbamoyl)-4-fluoropyrrolidin-1-yl)-2-oxoethyl)-5-methyl-1H-thieno[3,2-c]pyrazole-3-carboxamide] | > 6.00 | –
3 | NC(=O)c1nn(CC(=O)N2C[C@H](F)C[C@H]2C(=O)Nc2cccc(-c3cnc4nc[nH]c4c3Cl)c2F)c2ccccc12 [Compound 50, 1-(2-((2S,4R)-2-(3-(7-chloro-1H-imidazo[4,5-b]pyridin-6-yl)-2-fluorophenyl-carbamoyl)-4-fluoropyrrolidin-1-yl)-2-oxoethyl)-1H-indazole-3-carboxamide] | > 6.00 | –
4 | CC(C)(C)OC(=O)NCC(=O)c1ccc(Cl)c(-c2cccc(NC(=O)[C@@H]3C[C@@H](F)CN3C(=O)Cn3nc(C(N)=O)c4ccccc43)c2F)c1 [Compound 51, tert-butyl 2-(3′-((2S,4R)-1-(2-(3-carbamoyl-1H-indazol-1-yl)acetyl)-4-fluoropyrrolidine-2-carboxamido)-6-chloro-2′-fluorobiphenyl-3-yl)-2-oxoethylcarbamate] | > 6.00 | –
5 | NC(=O)c1nn(CC(=O)N2C[C@H](F)C[C@H]2C(=O)Nc2cccc(-c3ccc4scnc4c3)c2F)c2ccccc12 [Compound 52, 1-(2-((2S,4R)-2-(3-(benzo[d]thiazol-5-yl)-2-fluorophenyl-carbamoyl)-4-fluoropyrrolidin-1-yl)-2-oxoethyl)-1H-indazole-3-carboxamide] | > 6.00 | –
6 | NC(=O)c1cn(CC(=O)N2CCC[C@H]2C(=O)Nc2cccc(-c3ccccc3Cl)c2F)n2ccnc12 [Compound 54] | < 5.00 | –
7 | NC(=O)c1cn(CC(=O)N2C[C@H](F)C[C@H]2C(=O)Nc2cccc(Br)n2)n2ccnc12 [Compound 55, 5-(2-((2S,4R)-2-(6-bromopyridin-2-ylcarbamoyl)-4-fluoropyrrolidin-1-yl)-2-oxoethyl)-5H-imidazo[1,2-b]pyrazole-7-carboxamide] | < 5.00 | –
8 | NC(=O)c1nn(CC(=O)N2C[C@H](F)C[C@H]2C(=O)Nc2cccc(-c3ccc4ocnc4c3)c2F)c2ccccc12 [Compound 57, 1-(2-((2S,4R)-2-(3-(benzo[d]oxazol-5-yl)-2-fluorophenyl-carbamoyl)-4-fluoropyrrolidin-1-yl)-2-oxoethyl)-1H-indazole-3-carboxamide] | > 6.00 | –
9 | NC(=O)c1cn(CC(=O)N2C[C@H](F)C[C@H]2C(=O)Nc2cccc(-c3ccccc3Cl)c2F)n2ccnc12 [Compound 58, 5-(2-((2S,4R)-2-(2′-chloro-2-fluorobiphenyl-3-ylcarbamoyl)-4-fluoropyrrolidin-1-yl)-2-oxoethyl)-5H-imidazo[1,2-b]pyrazole-7-carboxamide] | 5.00 to 6.00 | –
10 | NC(=O)c1nn(CC(=O)N2C[C@H](F)C[C@H]2C(=O)Nc2cccc(-c3ccc4c(c3Cl)NC(=O)CN4)c2F)c2ccccc12 [Compound 59, 1-(2-((2S,4R)-2-((3-(5-Chloro-3-oxo-1,2,3,4-tetrahydroquinoxalin-6-yl)-2-fluorophenyl)carbamoyl)-4-fluoropyrrolidin-1-yl)-2-oxoethyl)-1H-indazole-3-carboxamide] | > 6.00 | –
11 | CC(=O)n1cc(CC(=O)N2C[C@H](F)C[C@H]2C(=O)Nc2cccc(-c3ccccc3Cl)c2F)c2ccc(-c3cnc(C)nc3)cc21 [Compound 60, (2S,4R)-1-(2-(1-acetyl-6-(2-methylpyrimidin-5-yl)-1H-indol-3-yl)acetyl)-N-(2′-chloro-2-fluorobiphenyl-3-yl)-4-fluoropyrrolidine-2-carboxamide] | > 6.00 | –
12 | CC(=O)n1cc(CC(=O)N2C[C@H](F)C[C@H]2C(=O)Nc2cccc(Br)n2)c2ccc(-c3cnc(C)nc3)cc21 [Compound 61, (2S,4R)-1-(2-(1-acetyl-6-(2-methylpyrimidin-5-yl)-1H-indol-3-yl)acetyl)-N-(6-bromopyridin-2-yl)-4-fluoropyrrolidine-2-carboxamide] | > 6.00 | –
13 | NC(=O)c1nn(CC(=O)N2C[C@H](F)C[C@H]2C(=O)Nc2cccc(-c3ccc4nc(C(=O)O)[nH]c4c3Cl)c2F)c2ccccc12 [Compound 62, 6-(3-((2S,4R)-1-(2-(3-carbamoyl-1H-indazol-1-yl)acetyl)-4-fluoropyrrolidine-2-carboxamido)-2-fluorophenyl)-7-chloro-1H-benzo[d]imidazole-2-carboxylic acid] | > 6.00 | –
14 | CC(C)(C)OC(=O)N=S(C)(=O)c1cccc(-c2cccc(NC(=O)[C@@H]3C[C@@H](F)CN3C(=O)Cn3nc(C(N)=O)c4ccccc43)c2F)c1 (stereo partly drawn) [Compound 64, tert-butyl ((3′-((2S,4R)-1-(2-(3-carbamoyl-1H-indazol-1-yl)acetyl)-4-fluoropyrrolidine-2-carboxamido)-2′-fluoro-[1,1′-biphenyl]-3-yl)(methyl)(oxo)-[…]^6-sulfanylidene)-[…]^4-azanecarboxylate] | 5.00 to 6.00 | –
15 | CS(=N)(=O)c1cccc(-c2cccc(NC(=O)[C@@H]3C[C@@H](F)CN3C(=O)Cn3nc(C(N)=O)c4ccccc43)c2F)c1 (stereo partly drawn) [Compound 65, 1-(2-((2S,4R)-4-fluoro-2-(2-fluoro-3′-(S-methylsulfonimidoyl)biphenyl-3-ylcarbamoyl)pyrrolidin-1-yl)-2-oxoethyl)-1H-indazole-3-carboxamide] | 5.00 to 6.00 | –
16 | NC(=O)c1nn(CC(=O)N2C[C@H](F)C[C@H]2C(=O)Nc2cccc(-c3ccccc3Cl)c2F)c2cn[nH]c12 [Compound 66, 1-(2-((2S,4R)-2-(2′-chloro-2-fluorobiphenyl-3-ylcarbamoyl)-4-fluoropyrrolidin-1-yl)-2-oxoethyl)-1,4-dihydropyrazolo[4,3-c]pyrazole-3-carboxamide] | > 6.00 | –
17 | NC(=O)c1nn(CC(=O)N2C[C@H](F)C[C@H]2C(=O)Nc2cccc(-c3ccc4nonc4c3)c2F)c2ccccc12 [Compound 68, 1-(2-((2S,4R)-2-(3-(benzo[c][1,2,5]oxadiazol-5-yl)-2-fluorophenyl-carbamoyl)-4-fluoropyrrolidin-1-yl)-2-oxoethyl)-1H-indazole-3-carboxamide] | > 6.00 | –
18 | CC(=O)c1cn(CC(=O)N2C[C@H](F)C[C@H]2C(=O)Nc2cccc(Br)n2)c2ccc(S(C)(=O)=NC(=O)OC(C)(C)C)cc12 (stereo partly drawn) [Compound 69, tert-butyl ((3-acetyl-1-(2-((2S,4R)-2-((6-bromopyridin-2-yl)carbamoyl)-4-fluoropyrrolidin-1-yl)-2-oxoethyl)-1H-indol-5-yl)(methyl)(oxo)-[…]^6-sulfanylidene)-[…]^4-azanecarboxylate e( )] | > 6.00 | –
19 | CC(=O)c1cn(CC(=O)N2C[C@H](F)C[C@H]2C(=O)Nc2cccc(Br)n2)c2ccc(S(C)(=N)=O)cc12 (stereo partly drawn) [Compound 70, (2S,4R)-1-(2-(3-Acetyl-5-(S-methylsulfonimidoyl)-1H-indol-1-yl)acetyl)-N-(6-bromopyridin-2-yl)-4-fluoropyrrolidine-2-carboxamide hydrochloride] | > 6.00 | –
20 | NC(=O)c1nn(CC(=O)N2C[C@H](F)C[C@H]2C(=O)Nc2cccc(-c3n[nH]c4ccsc34)c2F)c2ccccc12 [Compound 71, 1-(2-((2S,4R)-4-Fluoro-2-((2-fluoro-3-(1H-thieno[3,2-c]pyrazol-3-yl)phenyl)carbamoyl)pyrrolidin-1-yl)-2-oxoethyl)-1H-indazole-3-carboxamide] | > 6.00 | –
21 | Cc1cc2c(s1)c(C(=N)N)nn2CC(=O)N1C[C@H](F)C[C@H]1C(=O)Nc1cccc(-c2ccccc2Cl)c1F [Compound 73, (2S,4R)-1-(2-(3-carbamimidoyl-5-methyl-1H-thieno[3,2-c]pyrazol-1-yl)acetyl)-N-(2′-chloro-2-fluorobiphenyl-3-yl)-4-fluoropyrrolidine-2-carboxamide] | > 6.00 | –
22 | COC(=O)c1cc(-c2cccc(NC(=O)[C@@H]3C[C@@H](F)CN3C(=O)Cn3nc(C(N)=O)c4ccccc43)c2F)cc2[nH]c(NC(=O)OC(C)(C)C)nc12 [Compound 75, methyl 2-((tert-butoxycarbonyl)amino)-6-(3-((2S,4R)-1-(2-(3-carbamoyl-1H-indazol-1-yl)acetyl)-4-fluoropyrrolidine-2-carboxamido)-2-fluorophenyl)-1H-benzo[d]imidazole-4-carboxylate] | – | < 5.00
23 | COC(=O)c1cc(-c2cccc(NC(=O)[C@@H]3C[C@@H](F)CN3C(=O)Cn3nc(C(N)=O)c4ccccc43)c2F)cc2[nH]c(N)nc12 [Compound 76, methyl 2-amino-6-(3-((2S,4R)-1-(2-(3-carbamoyl-1H-indazol-1-yl)acetyl)-4-fluoropyrrolidine-2-carboxamido)-2-fluorophenyl)-1H-benzo[d]imidazole-4-carboxylate] | – | > 6.00
24 | NC(=O)c1nn(CC(=O)N2C[C@H](F)C[C@H]2C(=O)Nc2cccc(-c3cc(C(=O)O)c4nc(N)[nH]c4c3)c2F)c2ccccc12 [Compound 77, 2-Amino-6-(3-((2S,4R)-1-(2-(3-carbamoyl-1H-indazol-1-yl)acetyl)-4-fluoropyrrolidine-2-carboxamido)-2-fluorophenyl)-1H-benzo[d]imidazole-4-carboxylic acid hydrochloride] | – | 5.00 to 6.00
25 | NC(=O)c1cc(O)cc(CC(=O)N2C[C@H](F)C[C@H]2C(=O)Nc2cccc(-c3ccccc3Cl)c2F)c1 [Compound 78, (2S,4R)-1-(2-(3-carbamoyl-5-hydroxyphenyl)acetyl)-N-(2′-chloro-2-fluoro-[1,1′-biphenyl]-3-yl)-4-fluoropyrrolidine-2-carboxamide] | – | > 6.00

Source: patent US10807952B2 (Achillion Pharmaceuticals, Inc., priority 2015, dated 2020)
